Measured values from patent publication US11673889B2, “Substituted imidazo[4,5-c][1,8]naphthyridines as phosphodiesterase inhibitors” (Nanjing Zhengxiang Pharmaceuticals Co., Ltd., priority 2019, dated 2023).

How the values were obtained:
ENPP-1, MDA-MB-231 cells = target: T1, ENPP-1, MDA-MB-231 cells (Homo sapiens, UniProt P22413); assay: cell-based; conditions: for inhibition at 20 µM: MDA-MB-231, read-out: % Inhibition (at 20 μM)
T1 sequence (P22413 1-925): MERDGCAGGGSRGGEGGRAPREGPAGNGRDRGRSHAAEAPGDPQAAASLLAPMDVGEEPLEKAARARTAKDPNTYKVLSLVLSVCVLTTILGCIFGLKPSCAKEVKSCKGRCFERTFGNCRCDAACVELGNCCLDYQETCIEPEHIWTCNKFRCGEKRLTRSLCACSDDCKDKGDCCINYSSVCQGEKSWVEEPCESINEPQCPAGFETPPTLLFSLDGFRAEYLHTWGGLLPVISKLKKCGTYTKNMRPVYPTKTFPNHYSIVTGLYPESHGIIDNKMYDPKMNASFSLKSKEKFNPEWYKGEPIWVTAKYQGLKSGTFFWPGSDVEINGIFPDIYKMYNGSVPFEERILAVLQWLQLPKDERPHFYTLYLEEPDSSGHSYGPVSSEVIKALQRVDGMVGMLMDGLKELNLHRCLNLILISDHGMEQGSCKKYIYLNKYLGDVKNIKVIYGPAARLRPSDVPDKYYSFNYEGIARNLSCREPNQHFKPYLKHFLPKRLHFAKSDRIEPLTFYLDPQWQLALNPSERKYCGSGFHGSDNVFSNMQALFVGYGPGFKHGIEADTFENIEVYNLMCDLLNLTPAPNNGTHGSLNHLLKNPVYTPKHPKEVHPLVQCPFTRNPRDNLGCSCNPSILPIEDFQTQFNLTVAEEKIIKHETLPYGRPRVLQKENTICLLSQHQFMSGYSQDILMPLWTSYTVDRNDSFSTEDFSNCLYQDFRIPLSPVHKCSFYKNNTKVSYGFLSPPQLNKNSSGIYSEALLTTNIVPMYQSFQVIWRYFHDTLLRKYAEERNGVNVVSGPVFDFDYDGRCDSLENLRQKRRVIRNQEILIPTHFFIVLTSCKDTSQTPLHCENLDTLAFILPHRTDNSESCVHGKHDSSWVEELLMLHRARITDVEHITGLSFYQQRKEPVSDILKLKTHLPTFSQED

Pharmacokinetics in mice = type: in vivo; conditions: mouse, plasma, male CD-1 mice; for AUC / clearance / half-life / Vd: 1 mg/kg, iv; for Vd: read-out: Vdss
Outline: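 Male CD-1 mice (3 per group) dosed at 1 mg/kg IV bolus and 5 mg/kg oral gavage in 5% DMSO/40% PEG400/55% water. Jugular blood sampled from 0.033 (IV) or 0.083 (PO) up to 24 h. Plasma measured by LC/MS/MS, with PK parameters from non-compartmental analysis.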

human soluble ENPP1 = target: T2, human soluble ENPP1 (Homo sapiens, UniProt P22413); assay: ENPP1 activity assay using p-Nitrophenyl-5′-AMP as a substrate; type: biochemical
T2 construct: 20 ng of human soluble ENPP1
T2 sequence (P22413 103-925 limits assumed): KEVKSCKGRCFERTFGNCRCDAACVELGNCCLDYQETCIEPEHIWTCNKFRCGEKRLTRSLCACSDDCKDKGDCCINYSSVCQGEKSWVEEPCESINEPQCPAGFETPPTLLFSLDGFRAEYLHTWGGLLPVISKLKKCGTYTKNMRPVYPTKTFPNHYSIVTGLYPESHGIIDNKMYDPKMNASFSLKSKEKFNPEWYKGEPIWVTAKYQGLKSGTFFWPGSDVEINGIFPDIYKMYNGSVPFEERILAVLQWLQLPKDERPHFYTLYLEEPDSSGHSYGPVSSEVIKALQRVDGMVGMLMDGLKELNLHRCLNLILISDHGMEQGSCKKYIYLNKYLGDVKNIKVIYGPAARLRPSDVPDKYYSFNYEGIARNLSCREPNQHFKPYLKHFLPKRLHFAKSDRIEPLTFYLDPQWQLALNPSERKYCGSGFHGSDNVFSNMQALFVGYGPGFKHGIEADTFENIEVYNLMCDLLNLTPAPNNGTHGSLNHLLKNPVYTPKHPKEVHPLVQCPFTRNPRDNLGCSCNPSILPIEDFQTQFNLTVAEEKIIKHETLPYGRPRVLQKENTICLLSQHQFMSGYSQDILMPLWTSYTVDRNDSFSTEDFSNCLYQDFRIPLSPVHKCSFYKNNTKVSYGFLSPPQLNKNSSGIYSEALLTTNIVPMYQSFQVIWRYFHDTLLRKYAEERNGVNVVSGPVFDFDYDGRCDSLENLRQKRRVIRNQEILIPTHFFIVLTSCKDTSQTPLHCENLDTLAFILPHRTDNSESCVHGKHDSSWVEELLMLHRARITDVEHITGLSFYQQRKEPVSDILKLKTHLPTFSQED
Outline: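 Absorbance at 405 nm tracks p-nitrophenol from AMP-pNP hydrolysis after 1 h at room temperature, substrate added as 3 mM (2× final) following 30 min enzyme–compound preincubation. Enzyme: 35 ng human soluble ENPP1. IC50 fitted (variable-slope four-parameter) from percent inhibition normalized to max and blank.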

SMILES | IC50 (ENPP-1, MDA-MB-231 cells) [nM] | inhibition at 20 µM (ENPP-1, MDA-MB-231 cells) [%] | AUC (Pharmacokinetics in mice) [ng·h/mL] | clearance (Pharmacokinetics in mice) [mL/min/kg] | half-life (Pharmacokinetics in mice) [min] | Vd (Pharmacokinetics in mice) [L/kg] | bioavailability (Pharmacokinetics in mice; oral gavage (PO) at 5 mg/kg vs IV 1 mg/kg) [%] | IC50 (human soluble ENPP1) [nM]
COc1cc2ncc3ncn(Cc4ccc(S(N)(=O)=O)cn4)c3c2cc1OC [Compound 12, 6-((7,8-dimethoxy-1H-imidazo[4,5-c]quinolin-1-yl)methyl)pyridine-3-sulfonamide] | 550 | 79 | 93 | 180 | 15 | 2.9 | 0 | 3.9
COc1ccc2c(ncc3nc(C)n(Cc4ccc(S(N)(=O)=O)cc4)c32)n1 [Compound 48, 4-((7-methoxy-2-methyl-1H-imidazo[4,5-c][1,8]naphthyridin-1-yl)methyl)benzenesulfonamide] | 550 | 80 | 239 | 70 | 19.8 | 1.7 |  | 0.44
COc1ccc2c(n1)nc(C)c1nc(C)n(Cc3ccc(S(N)(=O)=O)cn3)c12 [Compound 89, 6-((7-methoxy-2,4-dimethyl-1H-imidazo[4,5-c][1,8]naphthyridin-1-yl)methyl)pyridine-3-sulfonamide] | 410 | 78 | 656 | 26 | 32.4 | 0.8 |  | 2.1
